Patent US20100298348A1, “Method of Decreasing Ubiquitylated Protein Levels” (priority 2009, published 2010)

Columns and labels:
ADAM17 (TACE) = test: Western blot of TACE in 3xTg-AD mouse brain; type: in vivo; conditions: 3xTg-AD mice ~14.5 months old, 5 mg/kg/day in drinking water, 2 months as printed
Procedure: In addition to ADAM10, ADAM17 (TACE, which is Tumor Necrosis Factor converting enzyme) is known to act as an alpha-secretase of APP. Thus, it was tested in a Western blot whether ST101 reduces levels of ADAM17 (TACE).
The Western blot was obtained using a TACE specific antibody in brain extracts from ST101 treated 3×TG-AD mice (S) versus control mice (C). Animals were approximately 14.5 months old at sacrifice after 2 months of treatment with ST101 at 5 mg/kg/day in drinking water.

α-tubulin = test: Western blot of α-tubulin and acetylated α-tubulin in 3xTg-AD mouse brain; type: in vivo; conditions: 3xTg-AD mice 12 months old, 5 mg/kg/day, 2 months
Excerpt: The overexposed band near the bottom of the figure represents α-tubulin. Above this band a ladder of immuno-reactive bands was detected by the antibody.

[1] = tested on: LC3, Beclin 1, LAMP2A, cathepsin D; test: Western blots of autophagy and lysosomal degradation mediators in 3xTg-AD mouse brain; type: in vivo; conditions: 3xTg-AD mice 12 months old, 5 mg/kg/day, 2 months
Procedure: The concentrations of several proteins involved in these pathways, specifically LC3, Beclin 1 (macroautophagy), LAMP2A (chaperone mediated autophagy), and cathepsin D (lysosomal protease) were measured in Western blots from 3xTg-AD mouse brains (FIG. 18, extracts from the same animals used in Examples 15-17.

APP = test: Western blot of APP fragments in cynomolgus monkey hippocampus, 9-month study; type: in vivo; conditions: male cynomolgus monkeys, 9 months oral
Procedure: (§1) Male cynomolgus monkeys were treated for 9 months with 0, 10, 30 or 100 mg/kg/day ST101 with once daily oral drug administration. Hippocampal brain samples were analyzed in Western blots and ELISAs for APP fragments and Aβ. […] Reductions in a ˜55-kDa fragment were also seen with treatment in these groups. Black outlines depict image level enhancement in Adobe Photoshop CS4, to better visualize weak signals. […] However, long exposures reveal the presence of the 17-kDa APP fragment only in treated monkeys (antibody CT20, Calbiochem). This fragment was not detected in either the 30 or 10 mg/kg/day ST101 groups. Error bars indicate SEM (standard error of the mean) and * indicates statistical significance versus control (p<0.05). (S: ST101-treated animals, versus C: control animals).

Aβ42 = test: Sandwich ELISA of Aβ42 in cynomolgus monkey hippocampal lysates, 9-month study; type: in vivo; conditions: male cynomolgus monkeys, 9 months oral
Procedure: as §1

[2] = Chronic and reproductive toxicity studies; type: in vivo
[3] = tested on: rodent models of learning and memory; conditions: cited from earlier work

O=C1N=C2C=CC=CN2C12Cc1ccccc1C2 [ST101, spiro(imidazo[1,2-a]pyridin-2(3H)-one-3,2′-indan)]
TACE levels (ADAM17 (TACE)): reduction of TACE levels in the majority of ST101 treated animals
tubulin degradation products (α-tubulin; acetylated α-tubulin antibody): reduced
high molecular weight ladder of α-tubulin immuno-reactive bands (presumably ubiquitylated tubulin) (α-tubulin; α-tubulin antibody): either absent or significantly reduced
Beclin 1 concentration [1]: did not reveal any obvious differences
LAMP2A concentration [1]: did not reveal any obvious differences
LC3 concentration [1]: did not reveal any obvious differences
cathepsin D concentration [1]: did not reveal any obvious differences
C83 APP fragment (APP; 10 mg/kg/day): no differences
C99 APP fragment (APP; 10 mg/kg/day): no differences
17-kDa APP fragment (APP; 10 mg/kg/day, antibody CT20): not detected
C83 APP fragment (APP; 30 mg/kg/day): reductions
C99 APP fragment (APP; 30 mg/kg/day): reductions
~55-kDa APP fragment (APP; 30 mg/kg/day): Reductions
17-kDa APP fragment (APP; 30 mg/kg/day, antibody CT20): not detected
C83 APP fragment (APP; 100 mg/kg/day): reductions
C99 APP fragment (APP; 100 mg/kg/day): reductions
~55-kDa APP fragment (APP; 100 mg/kg/day): Reductions
17-kDa APP fragment (APP; 100 mg/kg/day, antibody CT20, long exposures): presence
Aβ42 in hippocampal lysates (Aβ42; 10 mg/kg/day): significant increases
Aβ42 in hippocampal lysates (Aβ42; 30 mg/kg/day): significant decreases
Aβ42 in hippocampal lysates (Aβ42; 100 mg/kg/day): significant decreases
toxicity in chronic toxicity studies ([2]; high doses): very little toxicity
toxicity in reproductive toxicity studies ([2]; monkey, in vivo): very little toxicity
safety in rodent and monkey toxicity studies ([2]; up to 6 months, doses up to approximately 100-fold higher than in 3xTg-AD mice): proven safe
memory deficits induced by chemical amnesic agents ([3]; methamphetamine, MK-801, scopolamine): attenuates
age-impaired memory ([3]; rodent models): significantly improves
